# Patent US20090048314A1, “TREATMENT OF DUCHENNE MUSCULAR DYSTROPHY” (priority 2007, published 2009)
# Assays:
# Utrophin A promoter = test: Luciferase reporter assay (murine H2K cells); type: cell-based, mouse; conditions: H2K/mdx/Utro A reporter cells, final concentration 10 μM, 48 hrs
# Experimental: The cell line used for the screen is an immortalized mdx mouse H2K cell line that has been stably transfected with a plasmid containing 5 kb fragment of the Utrophin A promoter including the first untranslated exon linked to a luciferase reporter gene (see FIG. 26). Under conditions of low temperature and interferon containing media, the cells remain as myoblasts. These are plated into 96 well plates and cultured in the presence of compound for three days. The level of luciferase is then determined by cell lysis and reading of the light output from the expressed luciferase gene utilising a plate luminometer. The H2K/mdx/Utro A reporter cell line was passaged twice a week until ≦30% confluent. The cells were grown at 33° C. in the presence of 10% CO2 To remove the myoblasts for platting, they were incubated with Trypsin/EDTA until the monolayer started to detach. The H2K/mdx/Utro A reporter cell line cells were plated out into 96 well plates (Falcon 353296, white opaque) at a density of approximately 5000 cells/well in 190 μl normal growth medium. The plates were then incubated at 33° C. in the presence of 10% CO2 for 24 hrs. […] The plates were then incubated for a further 48 hrs Cells were then lysed in situ following the manufacture's protocols (Promega Steady-Glo Luciferase Assay System (E2520). Then counted for 10 seconds using a plate luminometer (Victor1420).
# [1] = Slurrying experiment (single form) in methanol, thermodynamic stability; type: physicochemical; conditions: for polymorphic form after slurrying (XRPD): slurried in methanol for four days at 25° C.
# Experimental: The stability of the various solid forms of 5-(ethylsulfonyl)-2-(naphthalen-2-yl)benzo[d]oxazole was investigated by stirring samples of each and mixtures thereof in methanol for defined time periods.
# Approximately 10 mg of two polymorphic forms was slurried in 0.25 ml of methanol for 4 days at either room temperature or 60° C. The supernatant liquor was then removed and the resulting solid was dried under vacuum for 24 hrs.
# Approximately 2 mg of sample was gently compressed on the XRPD zero back ground single obliquely cut silica sample holder. The sample was then loaded into a Philips X-Pert MPD diffractometer and analysed using the following experimental conditions:
# Tube anode: Cu Generator tension: 40 kV Tube current: 40 mA Wavelength alpha1: 1.5406 A Wavelength alpha2: 1.5444 A Start angle [2θ]: 5 End angle [2θ]: 35 Time per step: 2.5 seconds Scan step size: 0.06
Structure (SMILES),Biological activity in luciferase reporter assay relative to control (Utrophin A promoter),polymorphic form after slurrying (XRPD) [1],polymorphic form after slurrying (XRPD) ([1]; listed as Polymorphic form 1),stability compared with previously known forms ([1]; stirring in methanol),polymorphic form after slurrying (XRPD) ([1]; listed as Polymorphic form 2)
CCS(=O)(=O)c1ccc2oc(-c3ccc4ccccc4c3)nc2c1 [5-(ethylsulfonyl)-2-(naphthalen-2-yl)benzo[d]oxazole],+++ (Between 301% and 400% relative to control),–,–,–,–
"CCS(=O)(=O)c1ccc2oc(-c3ccc4ccccc4c3)nc2c1 [polymorphic form 1, 5-(ethylsulfonyl)-2-(naphthalen-2-yl)benzo[d]oxazole]",–,retains its structure,no change in the polymorphic form,increased stability,–
"CCS(=O)(=O)c1ccc2oc(-c3ccc4ccccc4c3)nc2c1 [polymorphic form 2, 5-(ethylsulfonyl)-2-(naphthalen-2-yl)benzo[d]oxazole]",–,converted into polymorphic form 1,–,–,polymorphic form 1 has converted to polymorphic form 2
